Data as given in publication PMC12557367, ““Precision on Two Wheels”–Structural Refinement of ^64Cu- and ^68Ga-Labeled Bicyclic Peptides Targeting Nectin‑4 for Improved Tumor Imaging: From Preclinical Development to First-in-Human Application” (Journal of Medicinal Chemistry, 2025).
Where two headings read alike, the source gives them in different places. Numbered stars: 1 amine (or outer) side, 2 acyl side, 3 side chain; on linkers, the order of the positions; unused ones are H or OH. Bridge positions count the residues as written; N and C are the ends. Square brackets hold non-standard residues; d marks the D form. Peptide text beside a SMILES is read from it. * marks the point of attachment. DOTA = O=C(O)CN1CCN(CC(=O)O)CCN(CC(=O)*)CCN(CC(=O)O)CC1; TATA = O=C(CC[*:1])N1CN(C(=O)CC[*:2])CN(C(=O)CC[*:3])C1; X1 = O=C(O)CN1CCN(CC(=O)O)CCN([C@H](CCC(=O)*)C(=O)O)CC1; 1Nal = N[C@@H](Cc1cccc2ccccc12)C(=O)O; 2Nal = N[C@@H](Cc1ccc2ccccc2c1)C(=O)O; Hyp = O=C(O)[C@@H]1C[C@@H](O)CN1; hArg = N=C(N)NCCCC[C@H](N)C(=O)O

What was measured:
[1] = molecular target: T1, recombinant human nectin-4 (Homo sapiens, UniProt Q96NY8); test: FA-based competitive binding assay with probe 1a; conditions: for fold lower binding affinity compared to 1e: FA K d ratio; for Hill coefficient n: competitive binding curve, variable slope
T1 construct: close to the value determined for the complete extracellular domain of nectin-4 (0.94 nM); purchased R&D Systems 2659-N4
T1 sequence (Q96NY8 32-349 limits assumed): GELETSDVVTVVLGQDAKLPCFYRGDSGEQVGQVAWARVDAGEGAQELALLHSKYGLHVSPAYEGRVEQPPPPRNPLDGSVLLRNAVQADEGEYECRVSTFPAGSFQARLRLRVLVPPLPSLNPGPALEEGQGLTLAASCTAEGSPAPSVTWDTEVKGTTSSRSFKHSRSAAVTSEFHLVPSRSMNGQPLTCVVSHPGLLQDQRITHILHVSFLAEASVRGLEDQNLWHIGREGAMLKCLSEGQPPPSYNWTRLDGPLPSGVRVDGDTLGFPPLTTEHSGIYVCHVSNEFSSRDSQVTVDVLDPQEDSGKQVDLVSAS
Protocol: For the competitive binding assay, a constant concentration of probe 1a (1 nM) and of nectin-4 (20 nM) was used, and the concentration of the competitors was varied over at least 3 orders of magnitude. […] Analysis of the curves by nonlinear regression according to dose–response inhibition with variable slope, as implemented in GraphPad Prism (see Experimental section), provided the IC50 value for displacing the probe from nectin-4.
All measurements were conducted at 37 °C over 1200 s (interval of 37 s) using a Cytation 5 multimode microplate reader (BioTek Instruments, Software Gen 5) and black 96-well microplates (BRANDplates with F-bottom wells). Experiments were conducted at an excitation wavelength of 540 nm and an emission wavelength of 620 nm. The FA (r) was calculated by Gen 5 software from the measured parallel and perpendicular fluorescence intensities (I ∥ and I ⊥, respectively) according to eq using a G factor of 0.87 (preset value). r=I∥−G×I⊥/I∥+2G×I⊥ 1
All further data analyses were conducted with GraphPad Prism (version 10.4.1, GraphPad Software, San Diego, CA, USA). The assay mixture (100 μL) contained an aqueous solution (99 μL) and DMSO (1%, v/v, 1 μL).
For the competitive binding assay, fixed concentrations of probe 1a (1 nM) and recombinant human nectin-4 (20 nM) and 10 concentrations of nonlabeled peptide (e.g., […] prepared as serial 1:1 dilution) were used (two separate experiments, each performed in duplicate). The corresponding stock solutions of 1a (2.5 nM) and nectin-4 (50 nM) were prepared in HEPES buffer, while the stock solutions of the nonlabeled peptides were prepared in 5% DMSO/HEPES buffer. nectin-4 (40 μL) and 1a (40 μL) were added to the wells, and the competition was started by the addition of the nonlabeled peptides (20 μL). The FA values were averaged over the time period of 1200 s, and plots of FA = f([peptide]) were analyzed by nonlinear regression according to the model “[inhibitor] vs. response – Variable slope (four parameters)” as implemented in GraphPad Prism. […] Therefore, the lower FA plateau was constrained to the FA value of probe 1a in the absence of nectin-4 and the competitor, which was recorded in each experiment.

[2] = molecular target: T2, immobilized human nectin-4 (Homo sapiens, UniProt Q96NY8); test: SPR analysis of binding kinetics; conditions: for kon / koff: ±SEM; for kon: read-out: k on (SPR, *10^6 M^–1 s^–1); for koff: read-out: k off (SPR, *10^–3 s^–1)
T2 construct: close to the value determined for the complete extracellular domain of nectin-4 (0.94 nM); purchased R&D Systems 2659-N4
T2 sequence (Q96NY8 32-349 limits assumed): T1 sequence (Q96NY8 32-349 limits assumed)
Protocol: For this purpose, recombinant human nectin-4 was covalently immobilized on a CM5 sensor chip by EDC/NHS coupling. For analyses, the buffer composition (HBS-P+, pH 7.4) was similar to that of the FA assay; however, DMSO was completely omitted (1% DMSO for the FA assay).
The SPR analyses were carried out on a Biacore T200 (GE Healthcare, Chicago, IL, USA) at 25 °C using CM5 sensor chips (Cytiva) and HBS-P+ as running buffer (Cytiva) at a flow of 30 μL/min unless otherwise specified and a data collection rate of 10 Hz. All flow cells (FC) were normalized, and functionalization was performed using an amine coupling Kit (Cytiva). […] Binding analyses were performed by a single-cycle kinetic on both FC. Two start-up cycles were performed at the beginning of each experimental set, comprising the injection of bicyclic peptide (50 nM) and analysis on both FC, followed by regeneration. Binding analysis for the bicyclic peptides was performed by consecutive injection of five increasing concentrations (120 s contact time for each concentration), followed by 600 s dissociation time and analysis on both FC. The regeneration was performed by sequential injection of 10 mM NaOAc (pH 5.5) for 60 s, washing the needle using HBS-P+, injection of 10 mM NaOAc (pH 5.5) for 60 s, 600 s waiting, four injections of HBS-P+ (60 s), and a final 600 s waiting for stabilization. Blank runs using only buffer (HBS-P+) instead of the sample were carried out to obtain double-referenced chromatograms. Binding analyses were performed unless otherwise stated in a concentration range between 0.16–100 nM and 1.6–1000 nM (5-fold dilution series) and analyzed in triplicate. The data were analyzed using the Biacore Evaluation software 3.2.1. […] Data were fitted to a 1:1 binding model.

[3] = tested on: HT-1376-derived tumor xenograft model; test: Small animal PET/CT imaging; parameters: species or system mice; conditions: mouse, in vivo
Protocol: (§1) All animal experiments were performed following the protocols evaluated and approved by the Landesdirektion Sachsen, Referat 25 – Veterinärwesen, Lebensmittelüberwachung and Pharmazie (09105 Chemnitz, Germany, ethics approval number: 25-5131/562/52). HT-1376- and 5637-derived tumor xenograft models were established in NMRI nude mice (Rj: NMRI-Foxn1nu/nu, Charles River Laboratories, Sulzfeld, Germany) by subcutaneous injection of 5 × 10^6 cells in 100 μL of PBS containing 50% (v/v) Matrigel (Corning Life Sciences, Amsterdam, The Netherlands).
(§2) When the tumor volume reached 200 mm^3, PET experiments with radiotracers were performed. Radiolabeling of the ligands was performed as described previously with an apparent molar activity of 25 MBq/nmol. The radioligand stock solution (pH 6.5 – 7.5) was diluted in 0.9% NaCl, and 200 μL containing ∼9 MBq ([…]) was injected per mouse intravenously into a lateral tail vein. For blocking of target-specific radioligand binding, 75 nmol of blocking substance (1d) was administered simultaneously with the radioligand. Coincidences were recorded continuously in a 2 h PET-scan starting with the injection. Additionally, a CT scan was performed for anatomical referencing and attenuation correction. PET/CT imaging, reconstruction, and tissue delineation were carried out as described previously.

[4] = Small animal PET/CT imaging; parameters: species or system mice; conditions: mouse, in vivo
Protocol: as §1, §2

SMILES	fold lower binding affinity compared to 1e [1]	Hill coefficient n [1]	kon ([2]; HBS-P+ pH 7.4, 25 °C) [M⁻¹ s⁻¹]	koff ([2]; pH 7.4, HBS-P+ pH 7.4, 25 °C) [s⁻¹]	other results
CSCC[C@@H]1NC(=O)[C@@H]2CSCCC(=O)N3CN(CN(C3)C(=O)CCSC[C@H](NC(=O)CN3CCN(CC(=O)O)CCN(CC(=O)O)CCN(CC(=O)O)CC3)C(=O)N3CCC[C@H]3C(=O)N[C@@H](Cc3ccc4ccccc4c3)C(=O)N[C@H](CC(=O)O)C(=O)N2)C(=O)CCSC[C@@H](C(N)=O)NC(=O)[C@H](Cc2c[nH]c3ccccc23)NC(=O)[C@@H]2C[C@@H](O)CN2C(=O)[C@@H]2CCCN2C(=O)[C@H]([C@@H](C)O)NC(=O)[C@H](CO)NC(=O)[C@H](Cc2c[nH]c3ccccc23)NC(=O)[C@H](CC(=O)O)NC(=O)[C@H](CCCNC(=N)N)NC1=O [[^68Ga]Ga-8c, metal not drawn] ({DOTA}-CP[2Nal][dD]CMRDWSTP[Hyp]WC-NH2; linker 1-5-15 via TATA)	–	–	–	–	Percent fast [%] [3]: 78.28 ±1.97%; body retention at 2 h p.i. [3]: 75%; time of highest tumor uptake [3]: 8.5 min; half-life ([4]; Blood half life fast [min]): 1.44 ± 0.19 min; half-life ([4]; Blood half life slow [min]): 38.8 ± 2.49 min
CSCC[C@@H]1NC(=O)[C@@H]2CSCCC(=O)N3CN(CN(C3)C(=O)CCSC[C@H](NC(=O)CN3CCN(CC(=O)O)CCN(CC(=O)O)CCN(CC(=O)O)CC3)C(=O)N3CCC[C@H]3C(=O)N[C@@H](Cc3ccc4ccccc4c3)C(=O)N[C@H](CC(=O)O)C(=O)N2)C(=O)CCSC[C@@H](C(=O)O)NC(=O)[C@H](Cc2c[nH]c3ccccc23)NC(=O)[C@@H]2C[C@@H](O)CN2C(=O)[C@@H]2CCCN2C(=O)[C@H]([C@@H](C)O)NC(=O)[C@H](CO)NC(=O)[C@H](Cc2c[nH]c3ccccc23)NC(=O)[C@H](CC(=O)O)NC(=O)[C@H](CCCNC(=N)N)NC1=O [[^68Ga]Ga-8d, metal not drawn, reference compound] ({DOTA}-CP[2Nal][dD]CMRDWSTP[Hyp]WC-OH; linker 1-5-15 via TATA)	–	–	–	–	Percent fast [%] [3]: 83.87 ±1.35%; body retention at 2 h p.i. [3]: 35%; time of highest tumor uptake [3]: 0.6 min; half-life ([4]; Blood half life fast [min]): 1.5 ± 0.15 min; half-life ([4]; Blood half life slow [min]): 37.1 ± 2.19 min
CCOC[C@@H]1NC(=O)[C@@H]2CSCCC(=O)N3CN(CN(C3)C(=O)CCSC[C@H](NC(=O)CC[C@H](C(=O)O)N3CCN(CC(=O)O)CCN(CC(=O)O)CC3)C(=O)N3CCC[C@H]3C(=O)N[C@@H](Cc3cccc4ccccc34)C(=O)N[C@H](CC(=O)O)C(=O)N2)C(=O)CCSC[C@@H](C(N)=O)NC(=O)[C@H](Cc2c[nH]c3ccccc23)NC(=O)[C@@H]2C[C@@H](O)CN2C(=O)[C@@H]2CCCN2C(=O)[C@H]([C@@H](C)O)NC(=O)[C@H](CO)NC(=O)[C@H](Cc2c[nH]c3ccccc23)NC(=O)[C@H](CC(=O)O)NC(=O)[C@H](CCCCNC(=N)N)NC1=O [compound 6] (X1-CP[1Nal][dD]CS(Et)[hArg]DWSTP[Hyp]WC-NH2; linker 1-5-15 via TATA)	approximately 10 fold	1.42	3.86e+06	0.0247	–
CCSC[C@@H]1NC(=O)[C@@H]2CSCCC(=O)N3CN(CN(C3)C(=O)CCSC[C@H](NC(=O)CC[C@H](C(=O)O)N3CCN(CC(=O)O)CCN(CC(=O)O)CC3)C(=O)N3CCC[C@H]3C(=O)N[C@@H](Cc3cccc4ccccc34)C(=O)N[C@H](CC(=O)O)C(=O)N2)C(=O)CCSC[C@@H](C(N)=O)NC(=O)[C@H](Cc2c[nH]c3ccccc23)NC(=O)[C@@H]2C[C@@H](O)CN2C(=O)[C@@H]2CCCN2C(=O)[C@H]([C@@H](C)O)NC(=O)[C@H](CO)NC(=O)[C@H](Cc2c[nH]c3ccccc23)NC(=O)[C@H](CC(=O)O)NC(=O)[C@H](CCCCNC(=N)N)NC1=O [compound 7] (X1-CP[1Nal][dD]CC(Et)[hArg]DWSTP[Hyp]WC-NH2; linker 1-5-15 via TATA)	approximately 10 fold	1.93	4.61e+06	–	koff ([2]; HBS-P+ pH 7.4, 25 °C): 0.0268 s⁻¹
CSCC[C@@H]1NC(=O)[C@@H]2CSCCC(=O)N3CN(CN(C3)C(=O)CCSC[C@H](NC(=O)CC[C@H](C(=O)O)N3CCN(CC(=O)O)CCN(CC(=O)O)CC3)C(=O)N3CCC[C@H]3C(=O)N[C@@H](Cc3ccc4ccccc4c3)C(=O)N[C@H](CC(=O)O)C(=O)N2)C(=O)CCSC[C@@H](C(N)=O)NC(=O)[C@H](Cc2c[nH]c3ccccc23)NC(=O)[C@@H]2C[C@@H](O)CN2C(=O)[C@@H]2CCCN2C(=O)[C@H]([C@@H](C)O)NC(=O)[C@H](CO)NC(=O)[C@H](Cc2c[nH]c3ccccc23)NC(=O)[C@H](CC(=O)O)NC(=O)[C@H](CCCCNC(=N)N)NC1=O [compound 9]	–	1.57	1.69e+07	0.0765	fold increase in k off vs 1e ([2]; SPR): 18 fold

Further lines, with some results ahead:

fold lower binding affinity compared to 1e [1]	Hill coefficient n [1]	kon ([2]; HBS-P+ pH 7.4, 25 °C) [M⁻¹ s⁻¹]	koff ([2]; pH 7.4, HBS-P+ pH 7.4, 25 °C) [s⁻¹]	SMILES	other results
10 fold	1.18	8.76e+06	0.0115	CSCC[C@@H]1NC(=O)[C@@H]2CSCCC(=O)N3CN(CN(C3)C(=O)CCSC[C@H](NC(=O)CN3CCN(CC(=O)O)CCN(CC(=O)O)CCN(CC(=O)O)CC3)C(=O)N3CCC[C@H]3C(=O)N[C@@H](Cc3cccc4ccccc34)C(=O)N[C@H](CC(=O)O)C(=O)N2)C(=O)CCSCC(C(N)=O)NC(=O)[C@H](Cc2c[nH]c3ccccc23)NC(=O)[C@@H]2C[C@@H](O)CN2C(=O)[C@@H]2CCCN2C(=O)[C@H]([C@@H](C)O)NC(=O)[C@H](CO)NC(=O)[C@H](Cc2c[nH]c3ccccc23)NC(=O)[C@H](CC(=O)O)NC(=O)[C@H](CCCCNC(=N)N)NC1=O (some centres unmarked) [1f]	Kd ([2]; HBS-P+ pH 7.4, 25 °C, single-cycle kinetics, 1:1 model, read-out: K d (SPR)): 1.31 nM
–	–	1.1e+06	0.0026	CSCC[C@@H]1NC(=O)[C@@H]2CSCCC(=O)N3CN(CN(C3)C(=O)CCSC[C@H](NC(=O)CC[C@H](C(=O)O)N3CCN(CC(=O)O)CCN(CC(=O)O)CC3)C(=O)N3CCC[C@H]3C(=O)N[C@@H](Cc3cccc4ccccc34)C(=O)N[C@H](CC(=O)O)C(=O)N2)C(=O)CCSC[C@@H](C(N)=O)NC(=O)[C@H](Cc2c[nH]c3ccccc23)NC(=O)[C@@H]2C[C@@H](O)CN2C(=O)[C@@H]2CCCN2C(=O)[C@H]([C@@H](C)O)NC(=O)[C@H](CO)NC(=O)[C@H](Cc2c[nH]c3ccccc23)NC(=O)[C@H](CC(=O)O)NC(=O)[C@H](CCCCNC(=N)N)NC1=O [natGa-1e, metal not drawn]	–
